Experimental data reported in patent US7964531B2, “3-phenoxy-4-pyridazinol derivatives and herbicidal composition containing the same” (Mitsui Chemicals Agro, Inc., priority 2001, dated 2011).
Structures can show the parent of a compound that is named as a salt.

First: C[Si](C)(C)c1ccc(Oc2nnc(Cl)cc2OC(=O)c2ccccc2)cc1
Second: C[Si](C)(C)c1ccc(Oc2nnc(Cl)cc2O)cc1
The melting point of the first is lower: 100 to 102 °C for the first, 197 to 199 °C for the second.

First: Cc1ccccc1Oc1nnc(Cl)cc1OC(=O)N(C)C
Second: CN(C)C(=O)Oc1cc(Cl)nnc1Oc1ccccc1C1CC1
The melting point of the first is lower: 107 to 109 °C for the first, 137 to 138 °C for the second.

First: CN(C)C(=O)Oc1cc(Cl)nnc1Oc1cccc(C(F)(F)F)c1
Second: Cc1cccc(C2CC2)c1Oc1nnc(Cl)cc1OC(=O)N(C)C
The melting point of the first is lower: 92 to 93 °C for the first, 136 to 138 °C for the second.

First: CCN(CC)C(=O)Oc1cc(Cl)nnc1Oc1c(C)cccc1C1CC1
Second: CON(C)C(=O)Oc1cc(Cl)nnc1Oc1c(C)cccc1C1CC1
The melting point of the first is higher: 119 to 121 °C for the first, 63 to 64.5 °C for the second.

First: Cc1cccc(C2CC2)c1Oc1nnc(Cl)cc1OC(=O)N(C(C)C)C(C)C
Second: Cc1cccc(C2CC2)c1Oc1nnc(Cl)cc1OC(=O)N(C)C(C)(C)C
The melting point of the first is lower: 103 to 105 °C for the first, 113 to 115 °C for the second.

First: C[Si](C)(C)c1c(Cl)nnc(Oc2ccccc2)c1O
Second: CC(C)(C)c1ccccc1Oc1nnc(Cl)c([Si](C)(C)C)c1O
The melting point of the first is lower: 119 to 120 °C for the first, 160 to 163 °C for the second.

First: Cc1cccc(C2CC2)c1Oc1nnc(Cl)cc1OC(=O)N(C)c1ccccn1
Second: Cc1cccc(C2CC2)c1Oc1nnc(Cl)cc1OC(=O)N(CCCl)CCCl
The melting point of the first is lower: 140 to 147 °C for the first, 166 to 167 °C for the second.

First: Cc1cccc(C2CC2)c1Oc1nnc(Cl)cc1OC(=O)N(CCC#N)CCC#N
Second: Cc1cccc(C2CC2)c1Oc1nnc(Cl)cc1C(=O)[O-].[K+]
The melting point of the first is lower: 159 to 161 °C for the first, 187 to 189 °C for the second.

First: Cc1cccc(C2CC2)c1Oc1nnc(Cl)cc1O
Second: Oc1cc(Cl)nnc1Oc1ccccc1C1CC1 [Compound No. 139, 6-Chloro-3-(2-cyclopropylphenoxy)-4-pyridazinol]
The melting point of the first is lower: 201 to 202 °C for the first, 229 to 231 °C for the second.

Compared with `Cc1ccc(S(=O)(=O)Oc2c(Cl)cnnc2Oc2ccccc2C)cc1` (as salt: benzene sulfonate) [Compound No. 66, 5-Chloro-3-(2-methylphenoxy)-4-pyridazinyl 4-methylbenzene sulfonate], `Cc1ccc(S(=O)(=O)Oc2ccccc2Oc2nnc(Cl)cc2OS(=O)(=O)c2ccc(C)cc2)cc1` (as salt: benzene sulfonate) [Compound No. 2233, 2-[(6-Chloro-4-{[(4-methylphenyl)sulfonyl]oxy}-3-pyridazinyl)oxy]phenyl 4-methylbenzene sulfonate] is lower in melting point: 140 to 143 °C for the first, 125.5 to 126.5 °C for the second.

First: O=S(=O)(Oc1cc(Cl)nnc1Oc1ccccc1C1CC1)C(F)(F)F (as salt: methanesulfonate) [Compound No. 2081, 6-Chloro-3-(2-cyclopropylphenoxy)-4-pyridazinyl trifluoromethanesulfonate]
Second: Oc1cc(Cl)nnc1Oc1ccccc1C1CCC1 [Compound No. 284, 6-Chloro-3-(2-cyclobutylphenoxy)-4-pyridazinol]
The melting point of the first is lower: 54 to 61 °C for the first, 188 to 189 °C for the second.

Compared with `Cc1ccccc1Oc1nnccc1O` [Compound No. 5, 3-(2-Methylphenoxy)-4-pyridazinol], `CC(C)c1ccccc1Oc1nnccc1O` [Compound No. 6, 3-(2-Isopropylphenoxy)-4-pyridazinol] is higher in melting point: 169 to 171 °C for the first, 181.5 to 182 °C for the second.

First: Cc1ccccc1Oc1nncc(Cl)c1O [Compound No. 45, 5-Chloro-3-(2-methylphenoxy)-4-pyridazinol]
Second: Cc1ccccc1Oc1n[n+]([O-])c(Cl)cc1O [Compound No. 129, 6-Chloro-3-(2-methylphenoxy)-4-pyridazinol 1-oxide]
The melting point of the first is higher: 238 to 243 °C for the first, 194 to 196 °C for the second.

Compared with `Oc1cc(Cl)nnc1Oc1ccccc1` [Compound No. 123, 6-Chloro-3-phenoxy-4-pyridazinol], `Oc1cc(Cl)nnc1Oc1ccccc1F` [Compound No. 124, 6-Chloro-3-(2-fluorophenoxy)-4-pyridazinol] is lower in melting point: 222 to 224 °C for the first, 210 to 212 °C for the second.

Compared with `Oc1cc(Cl)nnc1Oc1ccccc1Cl` [Compound No. 125, 6-Chloro-3-(2-chlorophenoxy)-4-pyridazinol], `Oc1cc(Cl)nnc1Oc1ccccc1Br` [Compound No. 126, 3-(2-Bromophenoxy)-6-chloro-4-pyridazinol] is lower in melting point: 208 to 212 °C for the first, 201 to 203 °C for the second.

First: Oc1cc(Cl)nnc1Oc1ccccc1I [Compound No. 127, 6-Chloro-3-(2-iodophenoxy)-4-pyridazinol]
Second: CCc1ccccc1Oc1nnc(Cl)cc1O [Compound No. 130, 6-Chloro-3-(2-ethylphenoxy)-4-pyridazinol]
The melting point of the first is lower: 216 to 217 °C for the first, 217 to 218 °C for the second.

First: CCCc1ccccc1Oc1nnc(Cl)cc1O [Compound No. 131, 6-Chloro-3-(2-propylphenoxy)-4-pyridazinol]
Second: CCCCc1ccccc1Oc1nnc(Cl)cc1O [Compound No. 133, 3-(2-Butylphenoxy)-6-chloro-4-pyridazinol]
The melting point of the first is higher: 170 to 172 °C for the first, 149.5 to 150 °C for the second.

Compared with `CC(C)Cc1ccccc1Oc1nnc(Cl)cc1O` [Compound No. 134, 6-Chloro-3-(2-isobutylphenoxy)-4-pyridazinol], `CCC(C)c1ccccc1Oc1nnc(Cl)cc1O` (stereo not drawn) [Compound No. 135, 3-(2-s-Butylphenoxy)-6-chloro-4-pyridazinol] is higher in melting point: 151.5 to 152.5 °C for the first, 158 to 159 °C for the second.

First: CC(C)(C)c1ccccc1Oc1nnc(Cl)cc1O [Compound No. 136, 3-(2-tert-Butylphenoxy)-6-chloro-4-pyridazinol]
Second: C=C(C)c1ccccc1Oc1nnc(Cl)cc1O [Compound No. 304, 6-Chloro-3-(2-isopropenylphenoxy)-4-pyridazinol]
The melting point of the first is higher: 215 to 216 °C for the first, 187 to 188 °C for the second.

First: CCCCCc1ccccc1Oc1nnc(Cl)cc1O [Compound No. 137, 6-Chloro-3-(2-pentylphenoxy)-4-pyridazinol]
Second: CCCCCCc1ccccc1Oc1nnc(Cl)cc1O [Compound No. 138, 6-Chloro-3-(2-hexylphenoxy)-4-pyridazinol]
The melting point of the first is higher: 151.5 to 152.5 °C for the first, 118 to 118.5 °C for the second.

Compared with `Oc1cc(Cl)nnc1Oc1ccccc1C1(F)CC1` [Compound No. 140, 6-Chloro-3-[2-(1-fluorocyclopropyl)phenoxy]-4-pyridazinol], `CC1(c2ccccc2Oc2nnc(Cl)cc2O)CC1` [Compound No. 144, 6-Chloro-3-[2-(1-methylcyclopropyl)phenoxy]-4-pyridazinol] is higher in melting point: 152 to 157 °C for the first, 196 to 198 °C for the second.

First: CCC1(c2ccccc2Oc2nnc(Cl)cc2O)CC1 [Compound No. 145, 6-Chloro-3-[2-(1-ethylcyclopropyl)phenoxy]-4-pyridazinol]
Second: COCC1(c2ccccc2Oc2nnc(Cl)cc2O)CC1 [Compound No. 163, 6-Chloro-3-{2-[1-(methoxymethyl)cyclopropyl]phenoxy}-4-pyridazinol]
The melting point of the first is lower: 162 to 165 °C for the first, 187 to 190 °C for the second.

First: Oc1cc(Cl)nnc1Oc1ccccc1C1(C2CC2)CC1 [Compound No. 151, 6-Chloro-3-{2-[1-(cyclopropyl)cyclopropyl]phenoxy}-4-pyridazinol]
Second: N#CC1(c2ccccc2Oc2nnc(Cl)cc2O)CC1 [Compound No. 173, 1-{2-[(6-Chloro-4-hydroxy-3-pyridazinyl)oxy]phenyl}cyclopropanecarbonitrile]
The melting point of the first is higher: 180 to 182 °C for the first, 63 to 64 °C for the second.

First: Oc1cc(Cl)nnc1Oc1ccccc1C1(c2ccccc2)CC1 [Compound No. 184, 6-Chloro-3-[2-(1-phenylcyclopropyl)phenoxy]-4-pyridazinol]
Second: COC1(c2ccccc2Oc2nnc(Cl)cc2O)CC1 [Compound No. 202, 6-Chloro-3-[2-(1-methoxycyclopropyl)phenoxy]-4-pyridazinol]
The melting point of the first is higher: 172 to 173 °C for the first, 157 to 165 °C for the second.

First: CC1CC1c1ccccc1Oc1nnc(Cl)cc1O (stereo not drawn) [Compound No. 217, 6-Chloro-3-[2-(2-methylcyclopropyl)phenoxy]-4-pyridazinol]
Second: CCOC1CC1c1ccccc1Oc1nnc(Cl)cc1O (stereo not drawn) [Compound No. 249, 6-Chloro-3-[2-(2-ethoxycyclopropyl)phenoxy]-4-pyridazinol]
The melting point of the first is higher: 192 to 208 °C for the first, 145 to 152 °C for the second.

First: Oc1cc(Cl)nnc1Oc1ccccc1C1CC1(F)F (stereo not drawn) [Compound No. 264, 6-Chloro-3-[2-(2,2-difluorocyclopropyl)phenoxy]-4-pyridazinol]
Second: Oc1cc(Cl)nnc1Oc1ccccc1C1CC1(Cl)Cl (stereo not drawn) [Compound No. 265, 6-Chloro-3-[2-(2,2-dichlorocyclopropyl)phenoxy]-4-pyridazinol]
The melting point of the first is higher: 215 to 216 °C for the first, 158 to 163 °C for the second.

Compared with `CC1(C)CC1c1ccccc1Oc1nnc(Cl)cc1O` (stereo not drawn) [Compound No. 267, 6-Chloro-3-[2-(2,2-dimethylcyclopropyl)phenoxy]-4-pyridazinol], `Oc1cc(Cl)nnc1Oc1ccccc1C1CCCC1` [Compound No. 292, 6-Chloro-3-(2-cyclopentylphenoxy)-4-pyridazinol] is lower in melting point: 187 to 188 °C for the first, 178 to 180 °C for the second.

Compared with `N#CC1(c2ccccc2Oc2nnc(Cl)cc2O)CCC1` [Compound No. 287, 1-{2-[(6-Chloro-4-hydroxy-3-pyridazinyl)oxy]phenyl}cyclobutanecarbonitrile], `O=C(O)C1(c2ccccc2Oc2nnc(Cl)cc2O)CCC1` [Compound No. 288, 1-{2-[(6-Chloro-4-hydroxy-3-pyridazinyl)oxy]phenyl}cyclobutanecarboxylic acid] is lower in melting point: 213 to 215 °C for the first, 173 to 175 °C for the second.

First: Oc1cc(Cl)nnc1Oc1ccccc1C1CCCCC1 [Compound No. 293, 6-Chloro-3-(2-cyclohexylphenoxy)-4-pyridazinol]
Second: CC=Cc1ccccc1Oc1nnc(Cl)cc1O [Compound No. 305, 6-Chloro-3-[2-(1-propenyl)phenoxy}-4-pyridazinol]
The melting point of the first is lower: 158 to 159 °C for the first, 204 to 206 °C for the second.

`N#C/C=C/c1ccccc1Oc1nnc(Cl)cc1O` [Compound No. 306, (2E)-3-{2-[(6-Chloro-4-hydroxy-3-pyridazinyl)oxy]phenyl}acrylonitrile] showed a melting point of 190 to 192 °C.

For `Oc1cc(Cl)nnc1Oc1ccccc1C1CC1(Br)Br` (stereo not drawn) [Compound No. 266, 6-Chloro-3-[2-(2,2-dibromocyclopropyl)phenoxy]-4-pyridazinol], the melting point was 208 to 210 °C (dec.).
